Measured values taken from PubChem BioAssay AID256 (DTP/NCI, 2004).
“And” between values parts separate entries of the source, which are not always exact repeats. Equal values may be shown once. Toxic doses and inconclusive results are not listed. The calls were made as follows: active = survival T/C of 150% or more; inactive = T/C below 125% in these data.

Test system: CD2F1 mice, L1210 leukemia ip, survival T/C
Assay: NCI In Vivo Anticancer Drug Screen. Data for tumor model L1210 Leukemia (intraperitoneal) in CD2F1 (CDF1) mice
Settings: higher = longer survival
Procedure: The antitumor activity of compounds was measured in mice bearing transplantable tumors. Survival or tumor size were measured and the results are expressed as the measurement made in the treated group (T) divided by the measurement made in the vehicle treated control group (C). The tumor model used in this assay is L1210 Leukemia (intraperitoneal) in CD2F1 (CDF1) mice

[1] = endpoint: mean survival time, dose: 100.0 mg/kg/injection, schedule: Q04DX003 (ip), vehicle: saline with Tween-80
[2] = endpoint: mean survival time, dose: 200.0 mg/kg/injection, schedule: Q04DX003 (ip), vehicle: saline with Tween-80
[3] = endpoint: mean survival time, dose: 400.0 mg/kg/injection, schedule: Q04DX003 (ip), vehicle: saline with Tween-80
[4] = endpoint: mean survival time, dose: 100.0 mg/kg/injection, schedule: Q01DX009 (ip), vehicle: saline with Tween-80
[5] = endpoint: mean survival time, dose: 200.0 mg/kg/injection, schedule: Q01DX009 (ip), vehicle: saline with Tween-80
[6] = endpoint: mean survival time, dose: 400.0 mg/kg/injection, schedule: Q01DX009 (ip), vehicle: saline with Tween-80
[7] = endpoint: mean survival time, dose: 100.0 mg/kg/injection, schedule: Q01DX009 (ip), vehicle: saline
[8] = endpoint: mean survival time, dose: 100.0 mg/kg/injection, schedule: Q04DX003 (ip), vehicle: saline

Measured: T/C

Cc1ccc(CC(F)(F)F)cc1
inactive: [1] 100 % of control | [2] 100 % of control | [3] 108 % of control

Cc1ccc(S(=O)(=O)OC2(c3ccc(C(F)(F)F)cc3)C3CCC2CC3)cc1 (stereo unspecified)
inactive: endpoint: mean survival time, dose: 12.5 mg/kg/injection, schedule: Q04DX002 (ip), vehicle: saline with Tween-80 104 % of control | endpoint: mean survival time, dose: 25.0 mg/kg/injection, schedule: Q04DX002 (ip), vehicle: saline with Tween-80 101 % of control | endpoint: mean survival time, dose: 50.0 mg/kg/injection, schedule: Q04DX002 (ip), vehicle: saline with Tween-80 104 % of control

CC(=O)N(c1c(F)c(F)cc(F)c1F)c1c(F)c(F)cc(F)c1F
inactive: [4] 95 % of control | [1] 104 % of control | [5] 103 % of control | [2] 102 % of control | [6] 95 % of control | [3] 98 % of control

ClC(Cl)(Cl)C1=NCc2nnn(Cc3ccccc3)c2N1
inactive: endpoint: mean survival time, dose: 12.5 mg/kg/injection, schedule: Q01DX009 (ip), vehicle: saline with Tween-80 100 % of control | endpoint: mean survival time, dose: 25.0 mg/kg/injection, schedule: Q01DX009 (ip), vehicle: saline with Tween-80 92 % of control | endpoint: mean survival time, dose: 50.0 mg/kg/injection, schedule: Q01DX009 (ip), vehicle: saline with Tween-80 105 % of control | [4] 100 % of control | [5] 107 % of control | [6] 94 % of control

CN(C)CC(=O)c1ccc(O)c(O)c1
inactive: endpoint: mean survival time, dose: 16.0 mg/kg/injection, schedule: Q03HX008 (ip), vehicle: saline 95 % of control | endpoint: mean survival time, dose: 16.0 mg/kg/injection, schedule: Q03HX016 (ip), vehicle: saline 97 % of control | endpoint: mean survival time, dose: 32.0 mg/kg/injection, schedule: Q03HX008 (ip), vehicle: saline 96 % of control | endpoint: mean survival time, dose: 32.0 mg/kg/injection, schedule: Q03HX016 (ip), vehicle: saline 106 % of control | endpoint: mean survival time, dose: 64.0 mg/kg/injection, schedule: Q01DX009 (sc), vehicle: saline 86 % of control | endpoint: mean survival time, dose: 64.0 mg/kg/injection, schedule: Q03HX008 (ip), vehicle: saline 110 % of control | endpoint: mean survival time, dose: 64.0 mg/kg/injection, schedule: Q03HX016 (ip), vehicle: saline 111 % of control | endpoint: mean survival time, dose: 64.0 mg/kg/injection, schedule: Q04DX003 (ip), vehicle: saline 101 % of control | endpoint: mean survival time, dose: 128.0 mg/kg/injection, schedule: Q01DX001 (oral), vehicle: saline 98 % of control | endpoint: mean survival time, dose: 128.0 mg/kg/injection, schedule: Q01DX001 (sc), vehicle: saline 98 % of control | endpoint: mean survival time, dose: 128.0 mg/kg/injection, schedule: Q01DX009 (oral), vehicle: saline 93 % of control | endpoint: mean survival time, dose: 128.0 mg/kg/injection, schedule: Q01DX009 (sc), vehicle: saline 86 % of control | endpoint: mean survival time, dose: 128.0 mg/kg/injection, schedule: Q03HX008 (ip), vehicle: saline 118 % of control | endpoint: mean survival time, dose: 128.0 mg/kg/injection, schedule: Q03HX016 (ip), vehicle: saline 122 % of control | endpoint: mean survival time, dose: 128.0 mg/kg/injection, schedule: Q04DX003 (ip), vehicle: saline 107 % of control | endpoint: mean survival time, dose: 128.0 mg/kg/injection, schedule: Q08DX002 (ip), vehicle: saline 105 % of control | endpoint: mean survival time, dose: 256.0 mg/kg/injection, schedule: Q01DX001 (oral), vehicle: saline 101 % of control | endpoint: mean survival time, dose: 256.0 mg/kg/injection, schedule: Q01DX001 (sc), vehicle: saline 96 % of control | endpoint: mean survival time, dose: 256.0 mg/kg/injection, schedule: Q01DX009 (oral), vehicle: saline 92 % of control | endpoint: mean survival time, dose: 256.0 mg/kg/injection, schedule: Q01DX009 (sc), vehicle: saline 86 % of control | endpoint: mean survival time, dose: 256.0 mg/kg/injection, schedule: Q04DX003 (ip), vehicle: saline 107 % of control | endpoint: mean survival time, dose: 256.0 mg/kg/injection, schedule: Q08DX002 (ip), vehicle: saline 103 % of control | endpoint: mean survival time, dose: 512.0 mg/kg/injection, schedule: Q01DX001 (oral), vehicle: saline 98 % of control | endpoint: mean survival time, dose: 512.0 mg/kg/injection, schedule: Q01DX001 (sc), vehicle: saline 95 % of control | endpoint: mean survival time, dose: 512.0 mg/kg/injection, schedule: Q01DX009 (oral), vehicle: saline 91 % of control | endpoint: mean survival time, dose: 512.0 mg/kg/injection, schedule: Q01DX009 (sc), vehicle: saline 86 % of control | endpoint: mean survival time, dose: 512.0 mg/kg/injection, schedule: Q04DX003 (ip), vehicle: saline 107 % of control | endpoint: mean survival time, dose: 512.0 mg/kg/injection, schedule: Q08DX002 (ip), vehicle: saline 105 % of control | endpoint: mean survival time, dose: 1024.0 mg/kg/injection, schedule: Q01DX001 (oral), vehicle: saline 96 % of control | endpoint: mean survival time, dose: 1024.0 mg/kg/injection, schedule: Q01DX001 (sc), vehicle: saline 107 % of control | endpoint: mean survival time, dose: 1024.0 mg/kg/injection, schedule: Q01DX009 (oral), vehicle: saline 93 % of control | endpoint: mean survival time, dose: 1024.0 mg/kg/injection, schedule: Q08DX002 (ip), vehicle: saline 110 % of control

CCN(CC)CCOC(=O)C(c1ccccc1)C(C)(O)CC (stereo unspecified)
inactive: endpoint: mean survival time, dose: 25.0 mg/kg/injection, schedule: Q01DX009 (ip), vehicle: saline 101 % of control | endpoint: mean survival time, dose: 50.0 mg/kg/injection, schedule: Q01DX009 (ip), vehicle: saline 87 % of control | [7] 104 % of control | [8] 88 % of control

Cc1nc(C(N)=O)c(=O)[nH]c1C
inactive: endpoint: mean survival time, dose: 25.0 mg/kg/injection, schedule: Q04DX003 (ip), vehicle: saline 102 % of control | endpoint: mean survival time, dose: 50.0 mg/kg/injection, schedule: Q04DX003 (ip), vehicle: saline 107 % of control | [7] 111 % of control | [8] 101 % of control | endpoint: mean survival time, dose: 200.0 mg/kg/injection, schedule: Q01DX009 (ip), vehicle: saline 100 % of control | endpoint: mean survival time, dose: 400.0 mg/kg/injection, schedule: Q01DX009 (ip), vehicle: saline 97 % of control

O=C(O)c1cc(Br)c(Br)s1
inactive: [1] 94 % of control | [2] 94 % of control

O=c1cn[nH]c(=O)[nH]1
inactive: endpoint: median survival time, dose: 62.5 mg/kg/injection, schedule: Q01DX009 (ip), vehicle: saline 94 % of control and 100 % of control | endpoint: median survival time, dose: 125.0 mg/kg/injection, schedule: Q01DX009 (ip), vehicle: saline 100 % of control | endpoint: median survival time, dose: 250.0 mg/kg/injection, schedule: Q01DX009 (ip), vehicle: saline 122 % of control and 100 % of control | endpoint: median survival time, dose: 500.0 mg/kg/injection, schedule: Q01DX009 (ip), vehicle: saline 111 % of control and 112 % of control

Cc1nc(C(Cl)(Cl)Cl)[nH]c(=O)c1SCCO
inactive: endpoint: median survival time, dose: 25.0 mg/kg/injection, schedule: Q01DX009 (ip), vehicle: distilled water + alcohol 97 % of control and 100 % of control and 102 % of control | endpoint: median survival time, dose: 25.0 mg/kg/injection, schedule: Q01DX009 (sc), vehicle: distilled water + Tween-80 + alcohol 101 % of control | endpoint: median survival time, dose: 50.0 mg/kg/injection, schedule: Q01DX009 (sc), vehicle: distilled water + Tween-80 + alcohol 101 % of control | endpoint: median survival time, dose: 100.0 mg/kg/injection, schedule: Q01DX009 (sc), vehicle: distilled water + Tween-80 + alcohol 101 % of control | endpoint: median survival time, dose: 200.0 mg/kg/injection, schedule: Q01DX009 (sc), vehicle: distilled water + Tween-80 + alcohol 103 % of control

O=C1c2ccccc2CC12OC2c1ccccc1 (stereo unspecified)
inactive: endpoint: mean survival time, dose: 25.0 mg/kg/injection, schedule: Q01DX009 (ip), vehicle: Klucel (hydroxypropylcellulose) (HPC) 103 % of control | endpoint: mean survival time, dose: 50.0 mg/kg/injection, schedule: Q01DX009 (ip), vehicle: Klucel (hydroxypropylcellulose) (HPC) 110 % of control | endpoint: mean survival time, dose: 100.0 mg/kg/injection, schedule: Q01DX009 (ip), vehicle: Klucel (hydroxypropylcellulose) (HPC) 89 % of control | endpoint: mean survival time, dose: 200.0 mg/kg/injection, schedule: Q01DX009 (ip), vehicle: Klucel (hydroxypropylcellulose) (HPC) 98 % of control | endpoint: mean survival time, dose: 400.0 mg/kg/injection, schedule: Q01DX009 (ip), vehicle: Klucel (hydroxypropylcellulose) (HPC) 98 % of control
